58 compounds from the METLIN SMRT retention time set (Domingo-Almenara et al. 2019) can be followed below.

Structures are written as SMILES.

The nature of this data set: gradient 5% acetonitrile 3 min, to 50% in 2 min, to 85% in 15 min, held 3 min, 100 µL/min. Particulars: column: Zorbax Extend-C18 2.1 x 50 mm; eluents: water / acetonitrile, 0.1% formic acid. Summed up: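 Retention time was recorded from adduct peaks, which were picked computationally and each inspected manually. Pure standards ran in mixtures of ~100 molecules on HPLC coupled to a quadrupole time-of-flight mass spectrometer, in positive and negative ionization mode, through a Zorbax Extend-C18 column (2.1 × 50 mm, 1.8 μm) at 100 μL/min. Eluents were water and acetonitrile, each with 0.1% formic acid.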
In turn, `Cc1cc2c(cc1S(=O)(=O)NC(C)C)N(C(=O)C1CC1)CC2` displayed an RP-LC retention time of 808 s.

As to `O=S(=O)(CCc1ccccc1)N1CCN(c2ccc3nnc(-c4ccco4)n3n2)CC1`, the RP-LC retention time was 752 s.

The compound `Cc1ccc(NC(=O)Cc2csc3nc(-c4ccc(C)c(C)c4)cn23)cc1` had an RP-LC retention time of 884 s.

Regarding `O=C(NCCc1ccccc1)C1CCN(C(=O)c2ncn3c2COC(c2ccccc2)C3)CC1` (stereo not drawn), the RP-LC retention time was determined as 708 s.

Regarding `CCc1c(C(=O)NNC(=O)[C@@H](O)c2cc(F)cc(F)c2)ccc(O)c1C`, the RP-LC retention time amounted to 807 s.

With `CCCn1c(C)cnc1C1CN(C(=O)c2ccoc2)C1`, the RP-LC retention time was 573 s.

`COCCCNC(=O)c1ccc2c(c1)CCCN2S(=O)(=O)c1ccccc1` had an RP-LC retention time of 822 s.

As for `Cc1noc(C)c1CC(=O)N1CCC(Cc2noc(C3CC3)n2)C1` (stereo not drawn), the RP-LC retention time stood at 748 s.

`CC1CCN(c2ccc(-c3noc(CN4CCN(CC(=O)NC(C)C)CC4)n3)cn2)CC1` displayed an RP-LC retention time of 646 s.

`CN(C)CCN(C(=O)CCc1ccccc1)c1nc2ccc(F)cc2s1` gave an RP-LC retention time of 773 s.

Consider `C=CCN1C(=O)COc2ccc(-c3csc(NC(=O)CCC)n3)cc21`, for which the RP-LC retention time was 894 s.

Take `Cc1ccc(OCc2ccc(-c3nc(C#N)c(NCCCN(C)C)o3)o2)cc1`: the RP-LC retention time came to 717 s.

`CCOc1ccc(NC(=O)Cn2nc3cc(-c4ccccc4)nc(C)n3c2=O)cc1` came in with an RP-LC retention time of 838 s.

As to `O=C(CSc1nnc(-c2ccc3c(c2)OCCO3)o1)N1CCN(c2ccccc2)CC1`, the RP-LC retention time turned out to be 850 s.

As to `CC1CCN(C(=O)C2c3ccccc3CCN2CC(=O)NCc2cccc(Cl)c2)CC1` (stereo not drawn), the RP-LC retention time was determined as 973 s.

`Cc1ccc(NC(=O)C2CCCN(c3ncnc4c3nc3n4CCCCC3)C2)cc1F` (stereo not drawn) came in with an RP-LC retention time of 785 s.

`COc1ccc2c(c1)C1(CCN(C(=O)Cc3ccc(C)cc3)C1)C(=O)N2C` (stereo not drawn) yielded an RP-LC retention time of 854 s.

With `Nc1ccc(-c2ccc3ncc4ccc(=O)n(-c5cccc(C(F)(F)F)c5)c4c3c2)cn1`, the RP-LC retention time worked out at 653 s.

For `Cc1ncc2c(n1)C[C@@H]1CC[C@H]2N1S(=O)(=O)Cc1ccccc1`, the RP-LC retention time was 706 s.

As for `Cn1c(N2CCC(C(=O)N3CCN(c4ccccn4)CC3)CC2)cc(=O)n(C)c1=O`, the RP-LC retention time is 578 s.

In the case of `CCn1nnc(NCc2ccc(-c3ccc(Br)cc3Cl)o2)n1`, the RP-LC retention time stood at 1120 s.

Compound `CC(C)NC(=O)CN1CCN(Cc2nc(-c3ccc(N4CCCC4)nc3)no2)CC1` registered an RP-LC retention time of 541 s.

For the compound `Cc1cccc(CN2CCN(C3CCN(C(=O)Nc4ccc5c(c4)OCCO5)CC3)C2=O)c1`, the RP-LC retention time amounted to 804 s.

As to `O=C(CSc1nnnn1-c1ccccc1)c1ccc2c(c1)OCCO2`, the RP-LC retention time amounted to 868 s.

`O=C1NCCCCCCN(C(=O)c2ccsc2)[C@H]2CCCC[C@@H]12` had an RP-LC retention time of 786 s.

With `CCN1C(=O)c2c(C(=O)NCc3ccccc3Cl)ncn2CC1(C)C(=O)NC1CCCC1` (stereo not drawn), the RP-LC retention time stood at 779 s.

As for `CCN(CC)S(=O)(=O)c1ccc2c(c1)cc(C(=O)NCCc1c[nH]c3ccc(OC)cc13)n2C`, the RP-LC retention time is 964 s.

Turning to `CCN1C(=O)c2cccnc2Sc2cc(C(=O)NCc3cccc(F)c3)ccc21`, the RP-LC retention time came out at 810 s.

In turn, `Cc1sc(-c2noc(C(C)C)n2)cc1S(=O)(=O)N1CCC(C(=O)N(C)Cc2ccco2)CC1` had an RP-LC retention time of 1070 s.

The compound `Cc1cc(F)cc2c(=O)c3c([nH]c12)CCN(CC(=O)Nc1cccc(Cl)c1)C3` returned an RP-LC retention time of 646 s.

`Nc1cc(S(=O)(=O)N2CCCCCC2)ccc1Cl` had an RP-LC retention time of 902 s.

`COCC(=O)N1CCC2(CC1)Nc1ccc(C)c(C)c1-n1cccc12` registered an RP-LC retention time of 823 s.

`COC(=O)c1c(C)[nH]c(C(=O)N2CCCC(C(=O)NCc3ccccc3)C2)c1C` (stereo not drawn) gave an RP-LC retention time of 732 s.

With `Cc1ccccc1NC(=O)N1CCC2(C1)C(=O)N(C)c1ccccc12` (stereo not drawn), the RP-LC retention time stood at 772 s.

Regarding `Cc1cc2nnc(SCC(=O)Nc3nc(-c4ccccc4)cs3)n2c2ccccc12`, the RP-LC retention time came to 964 s.

`O=C(c1ccco1)N1CCN(c2ccc(-c3noc(C4CC4)n3)cc2)CC1` displayed an RP-LC retention time of 864 s.

`O=C(NCC1CC1)C1CCN(c2nc3ccsc3c(=O)n2Cc2ccc(F)cc2)CC1` had an RP-LC retention time of 826 s.

`O=C(Nc1ccccc1)C1CCCN(S(=O)(=O)c2c[nH]c(C(=O)N3CCCC3)c2)C1` (stereo not drawn) gave an RP-LC retention time of 769 s.

`Cc1nc(Cn2cccc2C(=O)Nc2ccc(C)c(C)c2)no1`: the RP-LC retention time was 910 s.

Turning to `CC(NC(=O)c1ccco1)c1nc(-c2ccc3c(c2)ncn3C2CCCC2)no1` (stereo not drawn), the RP-LC retention time is 674 s.

`CCOC(=O)CC1(NC(=O)N2CCc3c(c(C(=O)N4CCCC4)nn3C)C2)CCCCC1`: the RP-LC retention time came to 764 s.

`O=C(NCc1cccs1)c1nc(-c2ccnc(N3CCCCC3)c2)no1` had an RP-LC retention time of 742 s.

On to `Cc1cccc(-c2noc(-c3nc(C)no3)n2)c1`, for which the RP-LC retention time stood at 1050 s.

`CC1(C(=O)NCc2ccccc2)CN(S(=O)(=O)c2ccccc2)CC(=O)N1C1CCCCC1` (stereo not drawn) gave an RP-LC retention time of 992 s.

`CCN1C(=O)c2cccnc2Sc2cc(CNC(=O)c3ccc(OC)c(OC)c3)ccc21` yielded an RP-LC retention time of 711 s.

Consider `O=C(c1ccccc1Cl)N1CCN(c2nc(CN3CCOCC3)cs2)CC1`, for which the RP-LC retention time turned out to be 600 s.

`CCSc1nc2ccc(NS(=O)(=O)c3ccc(C)cc3C)cc2s1` had an RP-LC retention time of 1110 s.

Compound `CCN(Cc1ccccc1)Cc1nc(-c2ccc(N3CCCC3)nc2)no1` had an RP-LC retention time of 640 s.

On to `COc1ccc(-c2noc(Cn3nc(-c4ccc(C)cc4)ccc3=O)n2)cc1OC`, for which the RP-LC retention time came out at 962 s.

The compound `COc1ccc(COc2cc3oc(=O)c4cc(C(C)O)ccc4c3cc2OC)cc1` (stereo not drawn) registered an RP-LC retention time of 942 s.

Regarding `COc1ccc(-c2ncc3c(n2)CCN(C(=O)Nc2ccccc2Br)C3)cc1`, the RP-LC retention time worked out at 961 s.

`Cc1ccc(C(=O)Nc2nc(-c3ccc4c(c3)NC(=O)CO4)c(C)s2)cc1` displayed an RP-LC retention time of 931 s.

Compound `COc1ccc(NS(=O)(=O)c2ccc3c(c2)C(=O)N(C)c2ncccc2O3)cc1Cl` yielded an RP-LC retention time of 918 s.

As to `CCOC(=O)c1cccc(N2C=C(C(=O)OC)S(=O)(=O)c3cc(F)ccc32)c1`, the RP-LC retention time worked out at 932 s.

Turning to `O=C(Nc1ccccc1)C1CC(=O)N(c2ccc3c(c2)CCN3C(=O)C2CC2)C1` (stereo not drawn), the RP-LC retention time worked out at 743 s.

`Cc1ccc(NC(=O)C2CCCN(c3ncnc4c3nc3n4CCCCC3)C2)cc1` (stereo not drawn) had an RP-LC retention time of 838 s.

With `Cc1ccsc1C(=O)Nc1ccc(N2CCN(Cc3ccccc3)C2=O)nc1`, the RP-LC retention time worked out at 834 s.

In turn, `COc1cc(OC)c(NC(=O)N2CCCC(Cn3cnc4cccnc43)C2)cc1Cl` (stereo not drawn) showed an RP-LC retention time of 703 s.
